Consider 24 compounds from ChEMBL document CHEMBL5154762, “Design, synthesis, and tumor drug resistance reversal activity of novel hederagenin derivatives modified by nitrogen-containing heterocycles” (Eur J Med Chem, 2022).

Calls of active or inactive are those of the source. The calls are words filed in the database; no cut-off is given here.

The nature of data set [1]: Cytotoxicity against human KBV cells assessed as decrease in cell survival rate at 10 uM measured after 72 hrs in presence of paclitaxel by MTT assay. The class given is functional. Particulars: read-out: Survival. (Formazan colour is commonly taken as a measure of viable cells.)
A short description of data set [2]: Cytotoxicity against human KBV cells assessed as decrease in cell survival rate at 10 uM measured after 72 hrs by MTT assay. Particulars: read-out: Survival. The data set is classed as functional.
A short description of data set [3]: Toxicity in BALB/c mouse xenografted with human KBV cells assessed as change in body weight at 10 mg/kg, ip qd administered presence of paclitaxel. The data set is classed as organism-based. Particulars: in vivo. A general note: Xenograft models place foreign cells or tissue in a host animal.
A short description of data set [4]: Antitumor activity against human KBV cells xenografted in BALB/c mouse assessed as tumor suppression rate at 10 mg/kg, ip qd administered in presence of paclitaxel. The class given is functional.
The nature of data set [5]: Induction of cell cycle arrest in human KBV cells assessed as accumulation at sub-G0 phase measured after 24 hrs by propidium iodide/RNase staining based flow cytometry analysis (reference value: 6.18%). The class given is functional. (A flow cytometer gives signals particle by particle.)
Data set [6] deals with ATP-dependent translocase ABCB1 (Homo sapiens, UniProt P08183). The data set can be described thus: Inhibition of P-glycoprotein mediated Rhodamine-123 efflux in human KBV cells assessed as increase in rhodamine-123 accumulation incubated for 3 hrs in presence of rhodamine-123 by flow cytometry analysis. The data set is classed as cell-based. Conditions: DDE = dose-dependent effect.
Chain of ATP-dependent translocase ABCB1 (P08183 whole entry): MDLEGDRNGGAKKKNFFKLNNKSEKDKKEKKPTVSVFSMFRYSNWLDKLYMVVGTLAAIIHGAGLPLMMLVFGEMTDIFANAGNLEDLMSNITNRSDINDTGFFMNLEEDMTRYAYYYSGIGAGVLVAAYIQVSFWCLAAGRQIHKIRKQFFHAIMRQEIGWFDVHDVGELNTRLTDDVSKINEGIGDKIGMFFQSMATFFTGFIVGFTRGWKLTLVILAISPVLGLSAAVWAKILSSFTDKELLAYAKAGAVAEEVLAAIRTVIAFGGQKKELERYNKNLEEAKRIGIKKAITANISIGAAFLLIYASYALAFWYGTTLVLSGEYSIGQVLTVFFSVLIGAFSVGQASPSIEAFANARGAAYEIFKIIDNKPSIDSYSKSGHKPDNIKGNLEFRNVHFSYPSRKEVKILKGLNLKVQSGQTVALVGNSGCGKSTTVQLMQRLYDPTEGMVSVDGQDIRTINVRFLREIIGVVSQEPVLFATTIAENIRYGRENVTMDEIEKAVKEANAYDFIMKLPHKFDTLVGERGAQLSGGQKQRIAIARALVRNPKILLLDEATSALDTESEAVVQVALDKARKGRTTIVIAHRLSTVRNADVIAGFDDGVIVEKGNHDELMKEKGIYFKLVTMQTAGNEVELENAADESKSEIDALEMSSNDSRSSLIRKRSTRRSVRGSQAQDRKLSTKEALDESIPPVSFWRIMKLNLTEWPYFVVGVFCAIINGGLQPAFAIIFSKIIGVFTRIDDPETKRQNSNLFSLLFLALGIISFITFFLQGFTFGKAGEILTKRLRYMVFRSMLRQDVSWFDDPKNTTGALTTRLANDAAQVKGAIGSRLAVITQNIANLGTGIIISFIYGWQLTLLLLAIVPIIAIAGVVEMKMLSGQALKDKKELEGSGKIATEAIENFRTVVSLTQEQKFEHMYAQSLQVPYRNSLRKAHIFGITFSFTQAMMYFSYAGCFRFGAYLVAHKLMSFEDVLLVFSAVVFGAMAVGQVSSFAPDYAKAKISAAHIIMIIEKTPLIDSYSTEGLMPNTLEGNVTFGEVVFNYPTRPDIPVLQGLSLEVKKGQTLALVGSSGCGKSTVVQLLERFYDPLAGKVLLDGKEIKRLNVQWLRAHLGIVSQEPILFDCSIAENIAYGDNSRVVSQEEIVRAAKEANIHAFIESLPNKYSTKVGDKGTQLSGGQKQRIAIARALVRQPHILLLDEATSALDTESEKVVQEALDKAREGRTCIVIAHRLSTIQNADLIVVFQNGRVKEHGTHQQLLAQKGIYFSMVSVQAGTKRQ

Data set [7] relates to KBV. Briefly: Induction of apoptosis in human KBV cells at 10 uM measured after 24 hrs in presence of paclitaxel by flow cytometry analysis. The class given is functional, cell-based.
Data set [8] relates to KBV. Briefly: Induction of cell cycle arrest in human KBV cells assessed as accumulation at G2/M phase measured after 24 hrs by propidium iodide/RNase staining based flow cytometry analysis. The class given is functional.
A short description of data set [9]: Antitumor activity against human KBV cells xenografted in BALB/c mouse assessed as tumor suppression rate at 30 mg/kg administered once every three days. The data set is classed as functional.
Data set [10] can be described thus: Cytotoxicity against human KBV cells assessed as decrease in cell survival rate at 100 nM measured after 72 hrs by MTT assay. The class given is functional. Particulars: read-out: Survival.

As for `CCOC(=O)c1noc2c1C[C@@]1(C)[C@@H](CC[C@]3(C)[C@@H]1CC=C1[C@@H]4CC(C)(C)CC[C@]4(C(=O)O)CC[C@]13C)[C@]2(C)CO`, the results for the viability at 10 µM in [1] and in data set [2] were 92.1% and 93.9%, respectively.

`CC1(C)CC[C@]2(C(=O)OCc3ccc(F)cc3)CC[C@]3(C)C(=CC[C@@H]4[C@@]5(C)Cc6nccnc6[C@@](C)(CO)[C@@H]5CC[C@]43C)[C@@H]2C1`: the figures for the viability at 10 µM in [1] and in [2] were 83.3% and 94.9%, respectively.

For `CC1(C)CC[C@]2(C(=O)OCc3cccc(Br)c3)CC[C@]3(C)C(=CC[C@@H]4[C@@]5(C)Cc6nccnc6[C@@](C)(CO)[C@@H]5CC[C@]43C)[C@@H]2C1`, the values for the viability at 10 µM in [1] and in data set [2] were 19.6% and 39.8%, respectively.

In the case of `CC1(C)CC[C@]2(C(=O)OCc3ccccc3)CC[C@]3(C)C(=CC[C@@H]4[C@@]5(C)Cc6cnoc6[C@@](C)(COC(=O)CCC(=O)n6cccn6)[C@@H]5CC[C@]43C)[C@@H]2C1`, the viability at 10 µM in data set [1] was 63.1%; in [2], 69.6%.

For `CC1(C)CC[C@]2(C(=O)OCc3cccc(Cl)c3)CC[C@]3(C)C(=CC[C@@H]4[C@@]5(C)Cc6nccnc6[C@@](C)(CO)[C@@H]5CC[C@]43C)[C@@H]2C1`, the viability at 10 µM worked out at 30.8% in data set [1] and 92% in [2].

Consider `CC1(C)CC[C@]2(C(=O)OCc3ccccc3F)CC[C@]3(C)C(=CC[C@@H]4[C@@]5(C)Cc6nccnc6[C@@](C)(CO)[C@@H]5CC[C@]43C)[C@@H]2C1`, for which the viability at 10 µM in [1] was 26.7%; in data set [2], 107%.

For the compound `CC1(C)CC[C@]2(C(=O)OCc3ccccc3)CC[C@]3(C)C(=CC[C@@H]4[C@@]5(C)Cc6cnoc6[C@@](C)(COC(=O)CCC(=O)N6CCCC6)[C@@H]5CC[C@]43C)[C@@H]2C1`, the viability at 10 µM was 33.3% in [1] and 99.4% in data set [2].

`Cc1ccccc1COC(=O)[C@]12CCC(C)(C)C[C@H]1C1=CC[C@@H]3[C@@]4(C)Cc5nccnc5[C@@](C)(CO)[C@@H]4CC[C@@]3(C)[C@]1(C)CC2`: the viability at 10 µM in data set [1] was determined as 27.5%; in [2], 99.7%.

For the compound `CC1(C)CC[C@]2(C(=O)OCc3cccc(F)c3)CC[C@]3(C)C(=CC[C@@H]4[C@@]5(C)Cc6nccnc6[C@@](C)(CO)[C@@H]5CC[C@]43C)[C@@H]2C1`, the results for the viability at 10 µM in data set [1] and in [2] were 35% and 110%, respectively.

Turning to `CC1(C)CC[C@]2(C(=O)O)CC[C@]3(C)C(=CC[C@@H]4[C@@]5(C)CC[C@H](O)[C@@](C)(CO)[C@@H]5CC[C@]43C)[C@@H]2C1` [HEDERAGENIN], the viability at 10 µM in data set [1] was 149%.

As for `CCN1CCN(C(=O)CCC(=O)OC[C@]2(C)c3oncc3C[C@@]3(C)[C@H]2CC[C@]2(C)[C@@H]3CC=C3[C@@H]4CC(C)(C)CC[C@]4(C(=O)OCc4ccccc4)CC[C@]32C)CC1`, the Activity entry in data set [3] is listed as “Non-Toxic”; in data set [4] it was 56.24%; in data set [5] it was 14.8%. The results for the viability at 10 µM in [1] and in data set [2] were 26.5% and 67.5%, respectively. Also, the “inhibition (INH)” value in data set [6] is reported as “Dde”. Also, the result in data set [7] and in [8] was Active.

Regarding `CC1(C)CC[C@]2(C(=O)OCc3ccccc3[N+](=O)[O-])CC[C@]3(C)C(=CC[C@@H]4[C@@]5(C)Cc6nccnc6[C@@](C)(CO)[C@@H]5CC[C@]43C)[C@@H]2C1`, the results for the viability at 10 µM in data set [1] and in [2] were 27.1% and 103%, respectively.

As to `CN1CCN(C(=O)CCC(=O)OC[C@]2(C)c3oncc3C[C@@]3(C)[C@H]2CC[C@]2(C)[C@@H]3CC=C3[C@@H]4CC(C)(C)CC[C@]4(C(=O)OCc4ccccc4)CC[C@]32C)CC1`, the viability at 10 µM worked out at 32.5% in [1] and 79.7% in data set [2].

Turning to `Cc1cccc(COC(=O)[C@]23CCC(C)(C)C[C@H]2C2=CC[C@@H]4[C@@]5(C)Cc6nccnc6[C@@](C)(CO)[C@@H]5CC[C@@]4(C)[C@]2(C)CC3)c1`, the figures for the viability at 10 µM in [1] and in data set [2] were 32.8% and 124%, respectively.

Consider `CC1(C)CC[C@]2(C(=O)OCc3ccccc3)CC[C@]3(C)C(=CC[C@@H]4[C@@]5(C)Cc6cnoc6[C@@](C)(CO)[C@@H]5CC[C@]43C)[C@@H]2C1`, for which the viability at 10 µM in [1] was found to be 33.7%; in [2] it was 140%.

On to `CC1(C)CC[C@]2(C(=O)OCc3ccccc3)CC[C@]3(C)C(=CC[C@@H]4[C@@]5(C)Cc6cnoc6[C@@](C)(COC(=O)CCC(=O)n6ccnc6)[C@@H]5CC[C@]43C)[C@@H]2C1`, for which the viability at 10 µM in data set [1] was 48.6%; in data set [2], 96.9%.

On to `CC1(C)CC[C@]2(C(=O)OCc3ccccc3)CC[C@]3(C)C(=CC[C@@H]4[C@@]5(C)Cc6cnoc6[C@@](C)(COC(=O)CCC(=O)N6CCOCC6)[C@@H]5CC[C@]43C)[C@@H]2C1`, for which the viability at 10 µM in data set [1] was 34.1%; in data set [2] it was 89.6%.

For `CC1(C)CC[C@]2(C(=O)OCc3ccc(Br)cc3)CC[C@]3(C)C(=CC[C@@H]4[C@@]5(C)Cc6nccnc6[C@@](C)(CO)[C@@H]5CC[C@]43C)[C@@H]2C1`, the viability at 10 µM was 34.2% in data set [1] and 109% in [2].

As for `CC(=O)O[C@H]1C(=O)[C@@]2(C)[C@H]([C@H](OC(=O)c3ccccc3)[C@]3(O)C[C@H](OC(=O)[C@H](O)[C@@H](NC(=O)c4ccccc4)c4ccccc4)C(C)=C1C3(C)C)[C@]1(OC(C)=O)CO[C@@H]1C[C@@H]2O` [PACLITAXEL], the Activity in [9] is given as 22.63%. The viability at 0.1 µM in [10] turned out to be 98.7%.

`CCOC(=O)c1noc2c1C[C@@]1(C)[C@@H](CC[C@]3(C)[C@@H]1CC=C1[C@@H]4CC(C)(C)CC[C@]4(C(=O)OCc4ccccc4)CC[C@]13C)[C@]2(C)CO`: the figures for the viability at 10 µM in data set [1] and in [2] were 94.7% and 102%, respectively.

With `CC1(C)CC[C@]2(C(=O)OCc3ccc([N+](=O)[O-])cc3)CC[C@]3(C)C(=CC[C@@H]4[C@@]5(C)Cc6nccnc6[C@@](C)(CO)[C@@H]5CC[C@]43C)[C@@H]2C1`, the figures for the viability at 10 µM in [1] and in data set [2] were 29.6% and 91.9%, respectively.

Regarding `CC1(C)CC[C@]2(C(=O)OCc3ccccc3)CC[C@]3(C)C(=CC[C@@H]4[C@@]5(C)Cc6nccnc6[C@@](C)(CO)[C@@H]5CC[C@]43C)[C@@H]2C1`, the viability at 10 µM in data set [1] was found to be 25.3%.

With `CC1(C)CC[C@]2(C(=O)OCc3ccccc3)CC[C@]3(C)C(=CC[C@@H]4[C@@]5(C)Cc6cnoc6[C@@](C)(COC(=O)CCC(=O)N6CCCCC6)[C@@H]5CC[C@]43C)[C@@H]2C1`, the viability at 10 µM in data set [1] was 79.2%; in data set [2], 80.5%.

As to `CC1(C)CC[C@]2(C(=O)OCc3ccccc3)CC[C@]3(C)C(=CC[C@@H]4[C@@]5(C)Cc6cnoc6[C@@](C)(COC(=O)CCC(=O)O)[C@@H]5CC[C@]43C)[C@@H]2C1`, the results for the viability at 10 µM in data set [1] and in data set [2] were 16.6% and 34%, respectively.
